Measurements from patent publication US6951751B2, “DNA and amino acid sequences of a tyrosine-inducible tyrosine ammonia lyase enzyme from the yeast Trichosporon cutaneum” (E. I. du Pont de Nemours and Company, priority 2002, dated 2005).
Like-named read-outs stand apart in the source and are kept apart here.

Assays:
Type in all cases: biochemical
[1] = target: T1, Rhodotorula rubra (ATCC No. 889) PAL/TAL enzyme (Rhodotorula mucilaginosa, UniProt P10248); test: PAL/TAL enzyme kinetics in cell-free extract, R. rubra ATCC 889; settings: Vmax/Km for phenylalanine relative to tyrosine
T1 sequence (P10248 1-713): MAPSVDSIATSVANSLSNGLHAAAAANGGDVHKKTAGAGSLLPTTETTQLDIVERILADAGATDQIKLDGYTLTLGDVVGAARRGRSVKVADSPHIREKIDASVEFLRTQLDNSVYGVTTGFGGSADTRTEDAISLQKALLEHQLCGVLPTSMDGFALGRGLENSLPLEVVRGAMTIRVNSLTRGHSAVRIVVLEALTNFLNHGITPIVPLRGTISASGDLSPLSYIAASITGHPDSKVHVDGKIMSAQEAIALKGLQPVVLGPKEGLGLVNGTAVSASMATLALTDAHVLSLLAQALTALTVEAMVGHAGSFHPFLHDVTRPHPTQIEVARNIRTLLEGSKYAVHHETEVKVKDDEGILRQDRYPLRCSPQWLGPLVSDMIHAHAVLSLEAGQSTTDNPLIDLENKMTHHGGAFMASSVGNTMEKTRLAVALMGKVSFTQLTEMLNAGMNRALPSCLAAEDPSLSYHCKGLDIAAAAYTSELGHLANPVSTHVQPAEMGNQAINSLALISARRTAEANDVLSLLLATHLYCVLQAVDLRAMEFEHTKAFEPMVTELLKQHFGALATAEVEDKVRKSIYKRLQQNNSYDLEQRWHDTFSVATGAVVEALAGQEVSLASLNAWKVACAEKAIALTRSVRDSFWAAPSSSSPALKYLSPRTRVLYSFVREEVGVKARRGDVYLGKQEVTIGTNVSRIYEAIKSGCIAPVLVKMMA
Excerpt: (§1) The yeast strains: Rhodotorula rubra (ATCC No. 889), Saccharomycopsis fibuligera (ATCC No. 2080), Rhodosporidium toruloides (ATCC No. 10788), Sporidobolus pararoseus (ATCC No. 11386), Sporidiobolus ruinenii (ATCC No. 20489), Rhodotorula graminis (ATCC No. 20804), Rhodotorula minuta (ATCC No. 32769), Trichosporon cutaneum (ATCC No. 46446), and Trichosporon cutaneum (ATCC No. 58094) were obtained from the American Type Culture Collection (ATCC, Manassas, Va.). These yeast strains were streaked out from glycerol stock onto nutrient agar plates and grown at 30° C. Single colonies were then selected and transferred to 50 mL of Dagley's medium (Sparnins, et al, J. Bact. 138:425-430 (1979)) supplemented with 0.1 g/L of tyrosine, phenylalanine or succinate. Alternatively, a minimal media, consisting of 1.61 g/L of K2HPO4, 5.55 g/L of KH2PO4, 0.1 g/L MgSO4, 0.01 g/L of biotin, with a pH of 6.2 and supplemented with 0.5 g/L of tyrosine, was used. […]
(§2) Protein concentrations were determined using the Bradford method (Anal. Biochem. 72:248-254 (1976)). The Coomassie solution was mixed with varying amounts of the cell free extracts and the OD at 595 nm was measured.
(§3) For PAL activity, cinnamate formation was monitored at 290 nm using a molar extinction coefficient of 9000 cm-1. […] For TAL activity, PHCA formation was monitored at 315 nm (extinction coefficient of 10,000 cm-1). […]

[2] = test system: Saccharomycopsis fibuligera (ATCC No. 2080) PAL/TAL enzyme; test: PAL/TAL enzyme kinetics in cell-free extract, S. fibuligera ATCC 2080
Excerpt: (§4) The yeast strains: Rhodotorula rubra (ATCC No. 889), Saccharomycopsis fibuligera (ATCC No. 2080), Rhodosporidium toruloides (ATCC No. 10788), Sporidobolus pararoseus (ATCC No. 11386), Sporidiobolus ruinenii (ATCC No. 20489), Rhodotorula graminis (ATCC No. 20804), Rhodotorula minuta (ATCC No. 32769), Trichosporon cutaneum (ATCC No. 46446), and Trichosporon cutaneum (ATCC No. 58094) were obtained from the American Type Culture Collection (ATCC, Manassas, Va.). These yeast strains were streaked out from glycerol stock onto nutrient agar plates and grown at 30° C. Single colonies were then selected and transferred to 50 mL of Dagley's medium (Sparnins, et al, J. Bact. 138:425-430 (1979)) supplemented with 0.1 g/L of tyrosine, phenylalanine or succinate. Alternatively, a minimal media, consisting of 1.61 g/L of K2HPO4, 5.55 g/L of KH2PO4, 0.1 g/L MgSO4, 0.01 g/L of biotin, with a pH of 6.2 and supplemented with 0.5 g/L of tyrosine, was used. The cells were grown up at 30° C. on a shaker at ˜250 rpm to an OD between 1.0 and 2.0 at 600 nm. The cells were then pelleted by centrifugation and resuspended in 1.0 mL of 50 mM Tris-HCl buffer, pH 8.5.
(§5) The cells were washed and then resuspended in 50 mM Tris-HCl buffer, pH 8.5, containing 1.0 μg/mL of both leupeptin and pepstatin A, 0.5 mM of PMSF (phenylmethylsulfonyl fluoride) and a small amount of DNase. The cells were then passed twice through a French Pressure Cell at 18,000 psi and the debris was removed by centrifugation at 38,720×g for 20 min at 4° C. The supernatant was then used as the crude cell free extract for enzyme assays.
as §2
(§6) For PAL activity, cinnamate formation was monitored at 290 nm using a molar extinction coefficient of 9000 cm-1. One unit of activity deaminates 1.0 μmol of phenylalanine to cinnamate in one min. For TAL activity, PHCA formation was monitored at 315 nm (extinction coefficient of 10,000 cm-1). One unit of activity deaminates 1.0 μmol of tyrosine to PHCA in one min.

[3] = target: T2, R. glutinis (Rhodosporidium toruloides, ATCC No. 10788) PAL/TAL enzyme (Rhodotorula toruloides, UniProt P11544); test: PAL/TAL enzyme kinetics in cell-free extract, R. glutinis (R. toruloides) ATCC 10788; settings: Vmax/Km for phenylalanine relative to tyrosine
T2 sequence (P11544 1-716): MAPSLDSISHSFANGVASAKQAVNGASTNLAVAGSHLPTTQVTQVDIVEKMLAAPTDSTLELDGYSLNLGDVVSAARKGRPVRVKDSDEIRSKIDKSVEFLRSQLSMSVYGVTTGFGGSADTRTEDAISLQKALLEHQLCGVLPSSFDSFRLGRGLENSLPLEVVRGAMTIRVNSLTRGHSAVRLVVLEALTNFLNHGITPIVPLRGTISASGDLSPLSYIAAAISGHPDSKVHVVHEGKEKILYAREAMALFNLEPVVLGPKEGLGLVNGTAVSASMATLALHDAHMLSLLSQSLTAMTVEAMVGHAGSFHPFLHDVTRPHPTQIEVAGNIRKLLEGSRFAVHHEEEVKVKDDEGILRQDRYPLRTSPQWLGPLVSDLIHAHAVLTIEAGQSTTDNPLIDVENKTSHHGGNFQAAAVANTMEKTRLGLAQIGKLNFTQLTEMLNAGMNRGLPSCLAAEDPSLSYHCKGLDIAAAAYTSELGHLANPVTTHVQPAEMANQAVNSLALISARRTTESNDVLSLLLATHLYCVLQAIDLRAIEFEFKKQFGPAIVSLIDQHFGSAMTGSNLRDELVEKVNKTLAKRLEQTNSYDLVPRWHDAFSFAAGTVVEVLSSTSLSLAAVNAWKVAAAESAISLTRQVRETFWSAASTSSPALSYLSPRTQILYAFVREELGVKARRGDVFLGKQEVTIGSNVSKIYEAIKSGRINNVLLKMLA
Excerpt: as §1, §2, §3

[4] = test system: Sporidobolus pararoseus (ATCC No. 11386) PAL/TAL enzyme; test: PAL/TAL enzyme kinetics in cell-free extract, S. pararoseus ATCC 11386
Excerpt: as §4, §5, §2, §6

[5] = test system: Sporidiobolus ruinenii (ATCC No. 20489) PAL/TAL enzyme; test: PAL/TAL enzyme kinetics in cell-free extract, S. ruinenii ATCC 20489
Excerpt: as §4, §5, §2, §6

[6] = test system: Rhodotorula graminis (ATCC No. 20804) PAL/TAL enzyme; test: PAL/TAL enzyme kinetics in cell-free extract, R. graminis ATCC 20804
Excerpt: as §4, §5, §2, §6

[7] = test system: Rhodotorula minuta (ATCC No. 32769) PAL/TAL enzyme; test: PAL/TAL enzyme kinetics in cell-free extract, R. minuta ATCC 32769
Excerpt: as §4, §5, §2, §6

[8] = test system: Trichosporon cutaneum (ATCC No. 46446) PAL/TAL enzyme; test: PAL/TAL enzyme kinetics in cell-free extract, T. cutaneum ATCC 46446
Excerpt: as §4, §5, §2, §6

[9] = test system: Trichosporon cutaneum (ATCC No. 58094) tyrosine ammonia lyase (TAL), wild type, SEQ ID NO:25; test: PAL/TAL enzyme kinetics in cell-free extract, T. cutaneum ATCC 58094
Excerpt: as §4, §5, §2, §6

[10] = Vmax/Km for phenylalanine relative to tyrosine
[11] = apparent, phenylalanine as substrate, cell-free extract, pH 8.5
[12] = apparent, phenylalanine as substrate, cell-free extract, pH 8.5, read-out: Km (PAL)
[13] = apparent, tyrosine as substrate, cell-free extract, pH 8.5
[14] = apparent, tyrosine as substrate, cell-free extract, pH 8.5, read-out: Km (TAL)

What does the source list for `N[C@@H](Cc1ccccc1)C(=O)O` [L-phenylalanine]?
Ratio PAL/TAL [1]: 2.52; Ratio PAL/TAL [2, 10]: 1.74; Vmax (PAL) [2, 11]: 0.011 U/mg; Km [2, 12]: 467 µM; Ratio PAL/TAL [3]: 2.20; Ratio PAL/TAL [4, 10]: 3.55; Vmax (PAL) [4, 11]: 0.179 U/mg; Km [4, 12]: 507 µM; Ratio PAL/TAL [5, 10]: 4.09; Vmax (PAL) [5, 11]: 0.024 U/mg; Km [5, 12]: 389 µM; Ratio PAL/TAL [6, 10]: 1.87; Vmax (PAL) [6, 11]: 0.239 U/mg; Km [6, 12]: 448 µM; Ratio PAL/TAL [7, 10]: 2.79; Vmax (PAL) [7, 11]: 0.083 U/mg; Km [7, 12]: 584 µM; Ratio PAL/TAL [8, 10]: 2.64; Vmax (PAL) [8, 11]: 0.128 U/mg; Km [8, 12]: 49600 µM; Ratio PAL/TAL [9, 10]: 0.80; Vmax (PAL) [9, 11]: 0.777 U/mg; Km [9, 12]: 2330 µM

For `N[C@@H](Cc1ccc(O)cc1)C(=O)O` [L-tyrosine], which “Vmax (TAL)” value [2, 13] is on record?
Its value is 0.002 U/mg.

And the Km [2, 14]?
Its Km is 156 µM.

And the “Vmax (TAL)” value [4, 13]?
The value was 0.033 U/mg.

And the Km [4, 14]?
Its Km is 327 µM.

What about the “Vmax (TAL)” value [5, 13] of the same molecule?
Its value is 0.004 U/mg.

And the Km [5, 14]?
The Km was 264 µM.

What about the “Vmax (TAL)” value [6, 13] of the same molecule?
The value was 0.044 U/mg.

And the Km [6, 14]?
Its Km is 154 µM.

What about the “Vmax (TAL)” value [7, 13] of the same molecule?
Its value is 0.011 U/mg.

And the Km [7, 14]?
The Km was 212 µM.

And the “Vmax (TAL)” value [8, 13]?
Its value is 0.013 U/mg.

What about the Km [8, 14] of the same molecule?
The Km was 13100 µM.

And the Km [9, 14]?
The Km was 431 µM.
